What was measured:
Botrytis cinerea = experiment: In vivo preventive test on Botrytis cinerea (grey mould); details: gherkin plants, 4 to 5 days after contamination
Protocol: In Vivo Preventive Test on Botrytis cinerea (Grey Mould) […] Gherkin plants (“Vert petit de Paris” variety), sown in starter cups on a 50/50 peat soil pozzolana substrate and grown at 24° C., are treated at the Z11 cotyledon stage by spraying with the active ingredient prepared as described above. Plants, used as controls, are treated with the mixture of acetone/tween/DMSO/water not containing the active material. After 24 hours, the plants are contaminated by spraying the cotyledons with an aqueous suspension of cryopreserved Botrytis cinerea spores (50 000 spores per mL). The spores are suspended in a nutrient solution composed of 10 g/L of PDB, 50 g/L of D-Fructose, 2 g/L of NH4NO3 and 1 g/L of KH2PO4. The contaminated gherkin plants are incubated at 17° C. and at 90% relative humidity. Grading (% of efficacy) is carried out 4 to 5 days after the contamination, in comparison with the control plants.

[1] = log P by HPLC on a reversed-phase column (C 18), EEC Directive 79/831 Annex V.A8; assay type: physicochemical; details: HPLC on reversed-phase column (C 18), 40° C., 0.1% aqueous formic acid and acetonitrile, linear gradient 10% to 90% acetonitrile
Protocol: In table 1, the log P values were determined in accordance with EEC Directive 79/831 Annex V.A8 by HPLC (High Performance Liquid Chromatography) on a reversed-phase column (C 18), using the method described below: Temperature: 40° C.; Mobile phases: 0.1% aqueous formic acid and acetonitrile; linear gradient from 10% acetonitrile to 90% acetonitrile. Calibration was carried out using unbranched alkan-2-ones (comprising 3 to 16 carbon atoms) with known log P values (determination of the log P values by the retention times using linear interpolation between two successive alkanones). lambda-max-values were determined using UV-spectra from 200 nm to 400 nm and the peak values of the chromatographic signals.

Uromyces appendiculatus = experiment: In vivo preventive test on Uromyces appendiculatus (bean rust); details: bean plants, 11 days after contamination
Protocol: In Vivo Preventive Test on Uromyces appendiculatus (Bean Rust) […] Bean plants (“Saxa” variety), sown in starter cups on a 50/50 peat soil pozzolana substrate and grown at 24° C., are treated at the 2 leaf stage (9 cm height) by spraying with the active ingredient prepared as described above. Plants, used as controls, are treated with the mixture of acetone/tween/DMSO/water not containing the active material. After 24 hours, the plants are contaminated by spraying the leaves with an aqueous suspension of Uromyces appendiculatus spores (150 000 spores per mL). The spores are collected from infected plants and are suspended in water containing 2.5 mL/L of Tween 80 at 10%. […] Grading (% of efficacy) is carried out 11 days after the contamination, in comparison with the control plants.

Puccinia recondita = experiment: In vivo preventive test on Puccinia recondita (brown rust on wheat); details: wheat plants, 12 days after contamination
Protocol: In Vivo Preventive Test on Puccinia recondita (Brown Rust on Wheat) […] Wheat plants (“Scipion” variety), sown in starter cups on a 50/50 peat soil pozzolana substrate and grown at 22° C., are treated at the 1 leaf stage (10 cm height) by spraying with the active ingredient prepared as described above. Plants, used as controls, are treated with the mixture of acetone/tween/DMSO/water not containing the active material. After 24 hours, the plants are contaminated by spraying the leaves with an aqueous suspension of Puccinia recondita spores (100 000 spores per mL). The spores are collected from an infected plant and are suspended in water containing 2.5 mL/L of Tween 80 at 10%. […] Grading (% of efficacy) is carried out 12 days after the contamination, in comparison with the control plants.

Septoria tritici = experiment: In vivo preventive test on Septoria tritici (wheat); details: wheat plants, 24 days after contamination
Protocol: In Vivo Preventive Test on Septoria tritici (Wheat) […] Wheat plants (“Scipion” variety), sown in starter cups on a 50/50 peat soil pozzolana substrate and grown at 22° C., are treated at the 1 leaf stage (10 cm height) by spraying with the active ingredient prepared as described above. Plants, used as controls, are treated with the mixture of acetone/tween/DMSO/water not containing the active material. After 24 hours, the plants are contaminated by spraying the leaves with an aqueous suspension of cryopreserved Septoria tritici spores (500 000 spores per mL). The contaminated wheat plants are incubated for 72 hours at 18° C. and at 100% relative humidity, and then for 21 days at 90% relative humidity. Grading (% of efficacy) is carried out 24 days after the contamination, in comparison with the control plants.

Sphaerotheca fuliginea = experiment: In vivo preventive test on Sphaerotheca fuliginea (powdery mildew on cucurbits); details: gherkin plants, 12 days after contamination
Protocol: In Vivo Preventive Test on Sphaerotheca fuliginea (Powdery Mildew on Cucurbits) […] Gherkin plants (“Vert petit de Paris” variety), sown in starter cups on a 50/50 peat soil-pozzolana substrate and grown at 24° C., are treated at the Z11 cotyledon stage by spraying with the active ingredient prepared as described above. Plants, used as controls, are treated with the mixture of acetone/tween/DMSO/water not containing the active material. After 24 hours, the plants are contaminated by spraying the cotyledons with an aqueous suspension of Sphaerotheca fuliginea spores (100 000 spores per mL). The spores are collected from infected plants. […] Grading (% of efficacy) is carried out 12 days after the contamination, in comparison with the control plants.

Row | Compound | Efficacy (Botrytis cinerea; 100 ppm of active ingredient) [%] | logP [1] | Efficacy (Uromyces appendiculatus; 100 ppm of active ingredient) [%] | Efficacy (Puccinia recondita; 100 ppm of active ingredient) [%] | Efficacy (Botrytis cinerea; 500 ppm of active ingredient) [%] | Efficacy (Uromyces appendiculatus; 500 ppm of active ingredient) [%] | Efficacy (Septoria tritici; 500 ppm of active ingredient) [%] | Efficacy (Sphaerotheca fuliginea; 500 ppm of active ingredient) [%] | Efficacy (Puccinia recondita; 500 ppm of active ingredient) [%] | Efficacy (Sphaerotheca fuliginea; 100 ppm of active ingredient) [%] | Efficacy (Septoria tritici; 100 ppm of active ingredient) [%]
1 | Cn1nc(C(F)F)c(C(=O)N(Cc2ccccc2-c2ccco2)C2CC2)c1F [I.32] | 94 | 3.31 | 74 | 88 |  |  |  |  |  |  | 
2 | Cn1nc(C(F)F)c(C(=O)N(Cc2ccccc2-c2cccs2)C2CC2)c1Cl [I.78] |  | 3.78 |  |  | 78 | 85 | 83 |  |  |  | 
3 | Cn1nc(C(F)F)c(C(=O)N(Cc2ccccc2-c2csc3ccccc23)C2CC2)c1F [I.156] |  | 4.27 |  |  | 97 |  | 96 | 95 | 81 |  | 
4 | Cn1nc(C(F)F)c(C(=O)N(Cc2cc(-c3ccco3)ccc2Cl)C2CC2)c1Cl [I.35] | 94 | 4.01 |  |  |  |  |  |  |  |  | 
5 | Cn1cc(C(=O)N(Cc2cc(Cl)ccc2-c2ccc(Cl)s2)C2CC2)c(C(F)F)c1 [I.146] |  | 4.85 |  |  | 100 |  |  |  |  |  | 
6 | Cc1ccc(-c2cscc2C)c(CN(C(=O)c2c(C(F)F)nn(C)c2F)C2CC2)c1 [I.108] | 100 | 4.25 |  |  |  |  |  |  |  | 75 | 86
7 | Cn1nc(C(F)F)c(C(=O)N(Cc2ccccc2Oc2nc(Cl)cc(Cl)n2)C2CC2)c1F [I.168] |  | 3.50 |  |  |  | 99 | 80 | 83 | 81 |  | 
8 | Cn1cc(C(=O)N(Cc2ccccc2-c2ccco2)C2CC2)c(C(F)F)n1 [I.31] | 81 | 2.96 |  |  |  |  |  |  |  |  | 
9 | Cn1nc(C(F)F)c(C(=O)N(Cc2ccccc2-c2ccc(Cl)s2)C2CC2)c1Cl [I.141] |  | 4.51 |  |  | 90 |  | 83 |  | 86 |  | 
10 | COc1ccsc1-c1ccc(C)cc1CN(C(=O)c1c(C(F)F)nn(C)c1F)C1CC1 [I.125] | 78 | 3.83 |  | 81 |  |  |  |  |  | 95 | 96
11 | CC(c1ccccc1-c1ccsc1)N(C(=O)c1c(C(F)F)nn(C)c1F)C1CC1 (centres unmarked) [I.82] | 97 | 3.78 |  | 81 |  |  |  |  |  | 98 | 97
12 | Cn1cc(-c2ccc(Cl)cc2CN(C(=O)c2c(C(F)F)nn(C)c2F)C2CC2)cn1 [I.55] |  | 2.80 |  |  |  | 99 | 95 | 100 | 95 |  | 
13 | Cn1nc(C(F)F)c(C(=O)N(Cc2ccccc2-c2cccs2)C2CC2)c1F [I.69] |  | 3.64 |  |  |  | 100 | 97 | 100 | 94 |  | 
14 | Cc1ccc(-c2ccsc2Cl)c(CN(C(=O)c2c(C(F)F)nn(C)c2F)C2CC2)c1 [I.150] | 90 | 4.26 |  | 81 |  |  |  |  |  | 100 | 80
15 | Cn1cc(-c2ccc(F)cc2CN(C(=O)c2c(C(F)F)nn(C)c2F)C2CC2)cn1 [I.56] |  | 2.50 |  |  |  | 85 | 100 | 98 | 78 |  | 
16 | Cc1ccc(-c2cnn(C)c2)c(CN(C(=O)c2cn(C)nc2C(F)F)C2CC2)c1 [I.59] | 81 | 2.37 |  |  |  |  |  |  |  |  | 
17 | Cn1ccc(-c2ccccc2CN(C(=O)c2c(C(F)F)nn(C)c2F)C2CC2)c1 [I.49] |  | 3.25 |  |  | 99 | 100 | 96 | 78 |  |  | 
18 | Cn1cc(C(=O)N(Cc2cc(-c3cccs3)ccc2Cl)C2CC2)c(C(F)F)n1 [I.84] | 100 | 3.68 |  |  |  |  |  |  |  |  | 71
19 | Cn1cc(C(=O)N(Cc2ccccc2-c2ccsc2)C2CC2)c(C(F)F)n1 [I.70] |  | 3.17 |  |  |  | 96 | 86 | 85 | 78 |  | 

From patent publication US10125126B2, “N-cycloalkyl-N-[(heterocyclylphenyl)methylene]-(thio)carboxamide derivatives” (BAYER CROPSCIENCE AG, priority 2012, dated 2018)
